{"source": "patent US5718912A", "about": "“Muscarine agonists” (Merck & Co., Inc., priority 1996, dated 1998)", "origin": "cited, not measured here", "tested_on": "intraocular pressure", "note": "Entries after “also recorded” stand apart in the source; their conditions may differ.", "data": [{"smiles": "CC[C@@H]1C(=O)OC[C@@H]1Cc1cncn1C", "note": "[pilocarpine]", "values": [{"measurement": "side effects", "setting": "pilocarpine therapy", "value": "miosis (decrease of pupil size); also recorded: systemic CNS effects"}, {"measurement": "effect on intraocular pressure", "setting": "topical administration", "value": "lowers intraocular pressure by increasing outflow"}]}]}
